{"source": "patent US20250127761A1", "about": "“Telmisartan Nanosuspension for Therapy of Respiratory Infections and Methods of Making and Using Same” (Soligenix, Inc., priority 2022, published 2025)", "key": {"[1]": {"tested_on": "ANG II type 1 receptor", "experiment": "Inhibition of ANG II-mediated intracellular calcium spike in lung smooth muscle cells", "assay_type": "cell-based"}, "[2]": {"details": "cynomolgus monkey, in vivo"}}, "data": [{"smiles": "CCCc1nc2c(C)cc(-c3nc4ccccc4n3C)cc2n1Cc1ccc(-c2ccccc2C(=O)O)cc1", "note": "[FD-TEL, telmisartan]", "values": [{"measurement": "ANG II-mediated transient [Ca2+]i spike", "setting": "[1]", "result": "equally and entirely abrogated"}, {"measurement": "creatine kinase", "setting": "[2]", "result": "significant increase"}]}]}
